From US6653478B2, “Substituted benzimidazol-2-ones as vasopressin receptor antagonists and neuropeptide Y modulators” (Ortho-McNeil Pharmaceutical, Inc., priority 2000, dated 2003) come the findings set out here.

As usually defined, the IC50 is the concentration needed to halve the response being measured. High values mean a need for much substance, low ones inhibition by little substance.

What all share (parameters): expressed in transfected cells; host or cells: HEK-293 (membranes)
Experiment [1] concerns the target T1, human V1b receptor (Homo sapiens, UniProt P47901).
T1 sequence (P47901 1-424): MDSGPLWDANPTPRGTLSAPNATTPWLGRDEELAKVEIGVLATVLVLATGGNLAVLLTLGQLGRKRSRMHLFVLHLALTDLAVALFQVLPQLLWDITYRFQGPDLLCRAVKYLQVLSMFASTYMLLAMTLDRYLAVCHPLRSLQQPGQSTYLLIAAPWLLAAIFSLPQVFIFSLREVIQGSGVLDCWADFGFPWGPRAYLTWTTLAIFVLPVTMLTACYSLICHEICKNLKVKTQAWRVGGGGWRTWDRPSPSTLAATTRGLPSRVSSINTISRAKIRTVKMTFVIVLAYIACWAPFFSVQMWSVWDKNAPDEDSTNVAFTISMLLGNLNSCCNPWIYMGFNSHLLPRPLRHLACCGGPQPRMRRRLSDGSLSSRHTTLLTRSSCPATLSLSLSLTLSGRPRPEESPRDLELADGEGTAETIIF
Put plainly: V1b binding assay (3H-AVP displacement, HEK-293 membranes). Particulars: for inhibition at 1 µM: 1.0 μM compound, read-out: V1b@1.0, % Inh. The protocol: (§1) V1a, V1b or V2 Binding Assay
(§2) Receptor binding studies were performed using recombinant human V1a, V1b or V2 receptors. Cellular membranes were harvested from HEK-293 cells transfected to express either the V1a, V1b or V2 receptors. Compounds were evaluated for their ability to displace ^3H-arginine vasopressin (^3H-AVP; specific activity 40-87 Ci/mmol; NEN Life Sciences, Boston, Mass.). Compounds were solubilized in dimethylsulfoxide (DMSO) and diluted to working concentration of 10% DMSO with assay buffer (50 mM Tris, 5 mM MgCl2, 0.1% BSA, pH 7.5). Assay buffer was supplemented with several protease inhibitors (1 mM Pefabloc, 5 μg/ml aprotinin/leupeptin/pepstatin A, 50 μg/ml bacitracin; Sigma Chemical, St. Louis, Mo.). Non-specific binding was determined using 1.25 μM arginine vasopressin (AVP; Peninsula Labs, Belmont, Calif.). Assay reagents and test compounds were added to 96-well round bottom polypropylene plates (145 μl buffer, 5 μl compound in 10% DMSO, 25 μl buffer containing 10,000 cpm tracer, 25 μl cell membrane). After incubation for 1 hour at room temperature, the well contents were aspirated across a Unifilter GF/C plate (Packard Instrument, Downers Grove, Ill.) which had been presoaked in 0.3% polyethyleneimine to prevent peptide sticking. The wells were washed repeatedly with cold saline containing 0.05% Tween 20. The plate was then dried and 25 μl Microscint-20 cocktail (Packard Instruments) added to each well. The plates were sealed and counted on a TopCount scintillation counter (Packard Instruments) using quench correction.

In experiment [2] the target is human V1a receptor (Homo sapiens, UniProt P37288). Put plainly: V1a binding assay (3H-AVP displacement, HEK-293 membranes). The settings on record: for inhibition at 1 µM: 1.0 μM compound, read-out: V1a@1.0, % Inh. On the procedure: as §1, §2
The target in experiment [3] is human V2 receptor (Homo sapiens, UniProt P30518). The experiment is described as follows: V2 binding assay (3H-AVP displacement, HEK-293 membranes). The settings on record: 1.0 μM compound; for inhibition at 1 µM: read-out: V2@1.0, % Inh. The protocol:
as §1, §2

human V2 receptor, sequence (P30518 whole entry): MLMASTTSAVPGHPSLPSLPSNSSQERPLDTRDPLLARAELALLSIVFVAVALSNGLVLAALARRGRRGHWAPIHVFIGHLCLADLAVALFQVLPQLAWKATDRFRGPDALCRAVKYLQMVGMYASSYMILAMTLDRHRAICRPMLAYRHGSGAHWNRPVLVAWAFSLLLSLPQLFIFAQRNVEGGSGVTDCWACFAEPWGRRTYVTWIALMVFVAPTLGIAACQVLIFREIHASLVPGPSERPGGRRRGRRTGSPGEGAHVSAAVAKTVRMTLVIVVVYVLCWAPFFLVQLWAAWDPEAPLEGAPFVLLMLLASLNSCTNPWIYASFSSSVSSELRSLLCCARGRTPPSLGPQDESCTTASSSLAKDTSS
human V1a receptor, sequence (P37288 whole entry): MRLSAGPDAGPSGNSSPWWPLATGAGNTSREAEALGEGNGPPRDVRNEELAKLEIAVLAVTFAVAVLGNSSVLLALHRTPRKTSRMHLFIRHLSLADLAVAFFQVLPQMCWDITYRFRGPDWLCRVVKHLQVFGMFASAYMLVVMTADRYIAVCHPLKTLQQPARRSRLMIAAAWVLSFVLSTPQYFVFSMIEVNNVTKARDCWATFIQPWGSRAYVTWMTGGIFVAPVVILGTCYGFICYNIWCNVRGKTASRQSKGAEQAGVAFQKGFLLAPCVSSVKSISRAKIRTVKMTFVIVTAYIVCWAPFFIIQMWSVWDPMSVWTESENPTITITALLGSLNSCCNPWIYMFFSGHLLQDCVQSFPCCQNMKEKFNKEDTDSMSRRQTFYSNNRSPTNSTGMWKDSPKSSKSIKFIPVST

As to `CCCN(CCC)CCCn1c(=O)n(C2CCN(C(=O)NC(c3ccccc3)c3ccccc3)CC2)c2ccccc21` [Compound 80, 1-[(N1-piperidinocarbonylbiphenylmethylamino)-4-yl]-3-(3-N,N-dipropylaminopropyl)-1,3-dihydrobenzimidazol-2-one], the inhibition at 1 µM in experiment [1] was 38%; in experiment [3], 11%. In addition, the IC50 in experiment [2] came to 170 nM.

On to `O=c1n(CCCNCC2CCCCC2)c2ccccc2n1C1CCN(C(=S)NC(c2ccccc2)c2ccccc2)CC1` [Compound 88, 1-[(N1-piperidinocarbothioylbiphenylmethylamino)-4-yl]-3-(3-cyclohexylmethylaminopropyl)-1,3-dihydrobenzimidazol-2-one], for which the half-maximal inhibitory concentration (IC50) was 1000 nM in experiment [1] and 36 nM in experiment [2]. In addition, in experiment [3], the inhibition at 1 µM was 3%.

With `O=c1n(CCCN2CCCCC2)c2cc(C(F)(F)F)ccc2n1C1CCN(C(=S)NC(c2ccccc2)c2ccccc2)CC1` [Compound 121], the figures for the inhibition at 1 µM in experiment [1] and in experiment [3] were 39% and 3%, respectively. The compound also displayed an IC50 in experiment [2] of 330 nM.

Consider `CCCC1CCN(CCCn2c(=O)n(C3CCN(C(=S)NC(c4ccccc4)c4ccccc4)CC3)c3ccccc32)CC1` [Compound 122, 1-[(N1-piperidinocarbothioylbiphenylmethylamino)-4-yl]-3-(4-propylpiperidin-1-yl-propyl)-1,3-dihydrobenzimidazol-2-one], for which the IC50 in experiment [1] came out at 250 nM; in experiment [2], 52 nM. Moreover, the inhibition at 1 µM is 70% in experiment [1] and 0% in experiment [3].

`COc1cccc(CNC(=S)N2CCC(n3c(=O)n(CCCN4CCCC4)c4ccccc43)CC2)c1OC` [Compound 123, 1-[(N1-Piperidinocarbothioyl-(2,3-dimethoxybenzyl)amino)-4-yl]-3-(3-pyrrolidinylpropyl)-1,3-dihydrobenzimidazol-2-one]: the results for the inhibition at 1 µM in experiment [1] and in experiment [3] were 31% and 2%, respectively. For the same compound, the IC50 in experiment [2] is 430 nM.

With `O=c1n(CCCN2CCCCC2)c2ccccc2n1C1CCN(C(=S)NCc2ccc(Cl)cc2)CC1` [Compound 124, 1-[(N1-piperidinocarbothioyl-4-chlorobenzylamino)-4-yl]-3-(3-N-piperidinylpropyl)-1,3-dihydrobenzimidazol-2-one], the inhibition at 1 µM in experiment [1] was found to be 44%; in experiment [3], 3%. In addition, the IC50 in experiment [2] was determined as 29 nM.

`O=c1n(CCCN2CCCCC2)c2ccccc2n1C1CCN(C(=S)NC2CCCCC2)CC1` [Compound 125, 1-[(N1-piperidinocarbothioylcyclohexylamino)-4-yl]-3-(3-N-piperidinylpropyl)-1,3-dihydrobenzimidazol-2-one]: the values for the inhibition at 1 µM in experiment [1] and in experiment [3] were 35% and 0%, respectively. The IC50 in experiment [2] worked out at 390 nM.

In the case of `O=c1n(CCCN2CCCCC2)c2ccccc2n1C1CCN(C(=S)NC(c2ccccc2)(c2ccccc2)c2ccccc2)CC1` [Compound 126, 1-[(N1-piperidinocarbothioyltriphenylmethylamino)-4-yl]-3-(3-N-piperidinylpropyl)-1,3-dihydrobenzimidazol-2-one], the inhibition at 1 µM in experiment [1], in experiment [2] and in experiment [3] was 0% throughout.

For `O=c1n(CCCN2CCCCC2)c2ccccc2n1C1CCN(C(=S)NCc2ccccc2-c2ccccc2)CC1` [Compound 127], the inhibition at 1 µM in experiment [1] came to 45%. This compound had a half-maximal inhibitory concentration (IC50) in experiment [2] of 22 nM. Moreover, in experiment [3] (1 µM), the “V2@1.0, % Inh” value was found to be 0%.

As to `CCCNC(=S)N1CCC(n2c(=O)n(CCCN3CCCCC3)c3ccccc32)CC1` [Compound 128, 1-[(N1-piperidinocarbothioylpropylamino)-4-yl]-3-(3-N-piperidinylpropyl)-1,3-dihydrobenzimidazol-2-one], the figures for the inhibition at 1 µM in experiment [1], in experiment [2] and in experiment [3] were 31%, 12% and 0%, respectively.

Turning to `O=c1n(CCCN2CCCCC2)c2ccccc2n1C1CCN(C(=S)N[C@]23C[C@H]4C[C@H](C[C@H](C4)C2)C3)CC1` [Compound 129, 1-[(N1-piperidinocarbothioyl-1-adamantylamino)-4-yl]-3-(3-N-piperidinylpropyl)-1,3-dihydrobenzimidazol-2-one], the inhibition at 1 µM amounted to 53% in experiment [1] and 3% in experiment [3]. This compound registered an IC50 in experiment [2] of 73 nM.

As to `CC(C)(C)NC(=S)N1CCC(n2c(=O)n(CCCN3CCCCC3)c3ccccc32)CC1` [Compound 130, 1-[(N1-piperidinocarbothioyl-butylamino)-4-yl]-3-(3-N-piperidinylpropyl)-1,3-dihydrobenzimidazol-2-one], the values for the inhibition at 1 µM in experiment [1], in experiment [2] and in experiment [3] were 26%, 19% and 2%, respectively.

Turning to `O=c1n(CCCN2CCCCC2)c2ccccc2n1C1CCN(C(=S)NC2c3ccccc3-c3ccccc32)CC1` [Compound 131, 1-[(N1-piperidinocarbothioylfluorenylamino)-4-yl]-3-(3-N-piperidinylpropyl)-1,3-dihydrobenzimidazol-2-one], the inhibition at 1 µM in experiment [1] was 62%; in experiment [3], 0%. In experiment [2], this compound gave a half-maximal inhibitory concentration (IC50) of 48 nM.

As to `CC(C)c1ccccc1NC(=S)N1CCC(n2c(=O)n(CCCN3CCCCC3)c3ccccc32)CC1` [Compound 132, 1-[(N1-piperidinocarbothioyl-2-isopropylphenylamino)-4-yl]-3-(3-N-piperidinylpropyl)-1,3-dihydrobenzimidazol-2-one], the inhibition at 1 µM in experiment [1] was found to be 55%; in experiment [2], 66%; in experiment [3] it was 0%.

Take `O=c1n(CCCN2CCCCC2)c2ccccc2n1C1CCN(C(=S)NCCCc2ccccc2)CC1` [Compound 133, 1-[(N1-piperidinocarbothioylphenpropylamino)-4-yl]-3-(3-N-piperidinylpropyl)-1,3-dihydrobenzimidazol-2-one]: the inhibition at 1 µM came to 42% in experiment [1] and 4% in experiment [3]. Besides, in experiment [2], the IC50 was determined as 69 nM.

With `O=c1n(CCCC2CCCCC2)c2ccccc2n1C1CCN(C(=S)NC(c2ccccc2)c2ccccc2)CC1` [Compound 134, 1-[(N1-Piperidinocarbothioyldiphenylmethylamino)-4-yl]-3-(3-cyclohexylpropyl)-1,3-dihydro-benzimidazol-2-one], the inhibition at 1 µM turned out to be 37% in experiment [1] and 0% in experiment [3]. The IC50 in experiment [2] worked out at 450 nM.

`COc1ccc(C(NC(=S)N2CCC(n3c(=O)n(CCCN4CCCCC4)c4ccccc43)CC2)c2ccc(OC)cc2)cc1` [Compound 136]: the inhibition at 1 µM in experiment [1] was determined as 50%; in experiment [3], 25%. In experiment [2], this compound showed an IC50 of 79 nM.

Take `O=C1CCCN1CCCn1c(=O)n(C2CCN(C(=S)NC(c3ccccc3)c3ccccc3)CC2)c2ccccc21` [Compound 175]: the inhibition at 1 µM is 23% in experiment [1] and 61% in experiment [2].

On to `O=C1CCCCN1CCCn1c(=O)n(C2CCN(C(=S)NC(c3ccccc3)c3ccccc3)CC2)c2ccccc21` [Compound 176], for which the inhibition at 1 µM in experiment [1] came to 31%; in experiment [2], 59%.

For `CC(C)N(CCCn1c(=O)n(C2CCN(C(=S)NC(c3ccccc3)c3ccccc3)CC2)c2ccccc21)C1CCCCC1` [Compound 177], the inhibition at 1 µM in experiment [1] was determined as 31%. In experiment [2], this compound gave an IC50 of 147 nM.

As to `CCCCN(CC)CCCn1c(=O)n(C2CCN(C(=S)NC(c3ccccc3)c3ccccc3)CC2)c2ccccc21` [Compound 178], in experiment [1], the inhibition at 1 µM worked out at 43%. This compound also had an IC50 in experiment [2] of 90 nM.

In the case of `CCN(CCCn1c(=O)n(C2CCN(C(=S)NC(c3ccccc3)c3ccccc3)CC2)c2ccccc21)C1CCCCC1` [Compound 179], the inhibition at 1 µM in experiment [1] came out at 65%. The IC50 in experiment [2] is 145 nM.

On to `CCC1CCN(CCCn2c(=O)n(C3CCN(C(=S)NC(c4ccccc4)c4ccccc4)CC3)c3ccccc32)C(C)C1` (stereo not drawn) [Compound 180], for which the inhibition at 1 µM in experiment [1] was found to be 58%. For the same compound, the half-inhibitory concentration (IC50) in experiment [2] amounted to 67 nM.

With `CC1CCCCN1CCCn1c(=O)n(C2CCN(C(=S)NC(c3ccccc3)c3ccccc3)CC2)c2ccccc21` (stereo not drawn) [Compound 181], the values for the IC50 in experiment [1] and in experiment [2] were 150 nM and 23 nM, respectively.
